# Reference: the supplement of paper PMC10307832
# What was measured:
# Assay in all cases: relative viability (nuclei count vs DMSO), 5 days (fraction); higher = more cells survive
# [1] = compound: CS(=O)(=O)CCNCc1ccc(-c2ccc3ncnc(Nc4ccc(OCc5cccc(F)c5)c(Cl)c4)c3c2)o1 [Lapatinib] + Nc1ncn([C@H]2C[C@H](O)[C@@H](CO)O2)c(=O)n1 [Decitabine] (partner 2 µM)
# In short: (§1)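 Relative viability was taken as the ratio of nuclei in treated wells to nuclei in vehicle wells. Lung cancer cell lines in 1536-well plates received compounds by pin tool one day after seeding, either one drug alone or a fixed anchor-drug dose plus five library-drug doses (not always all listed) in √10 steps. Nuclei were counted on 4× images after 5 days of treatment, and values are medians of duplicate plates.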
# [2] = compound: CC1=NC=CC(=C1)C2=CC=C(C=C2)CC(=O)NC3=CC=C(C=C3)C4=CN=CC=C4 [Wnt-C59] + Cc1nc(Nc2ncc(C(=O)Nc3c(C)cccc3Cl)s2)cc(N2CCN(CCO)CC2)n1 [Dasatinib] (partner 0.075 µM)
# In short: as §1
# [3] = compound: CS(=O)(=O)CCNCc1ccc(-c2ccc3ncnc(Nc4ccc(OCc5cccc(F)c5)c(Cl)c4)c3c2)o1 [Lapatinib] + CC1(C)CCC(c2ccc(Cl)cc2)=C(CN2CCN(c3ccc(C(=O)NS(=O)(=O)c4ccc(N[C@H](CCN5CCOCC5)CSc5ccccc5)c(S(=O)(=O)C(F)(F)F)c4)cc3)CC2)C1 [Navitoclax] (partner 0.5 µM)
# In short: as §1
# [4] = compound: CS(=O)(=O)CCNCc1ccc(-c2ccc3ncnc(Nc4ccc(OCc5cccc(F)c5)c(Cl)c4)c3c2)o1 [Lapatinib] + O=C(c1cc(Cc2n[nH]c(=O)c3ccccc23)ccc1F)N1CCN(C(=O)C2CC2)CC1 [Olaparib] (partner 8 µM)
# In short: as §1
Cell Line,relative viability ([1]; first compound 0.06325 µM),relative viability ([1]; first compound 0.2 µM),relative viability ([1]; first compound 0.6325 µM),relative viability ([1]; first compound 2 µM),relative viability ([2]; first compound 0.001 µM),relative viability ([2]; first compound 0.01 µM),relative viability ([2]; first compound 0.03162 µM),relative viability ([2]; first compound 0.1 µM),relative viability ([3]; first compound 0.2 µM),relative viability ([3]; first compound 0.6325 µM),relative viability ([3]; first compound 2 µM),relative viability ([4]; first compound 0.06325 µM),relative viability ([4]; first compound 0.2 µM),relative viability ([4]; first compound 0.6325 µM),relative viability ([4]; first compound 2 µM),relative viability ([1]; first compound 0.02 µM),relative viability ([3]; first compound 0.02 µM),relative viability ([4]; first compound 0.02 µM),relative viability ([3]; first compound 0.06325 µM)
LCLC-97TM1,0.232,0.222,0.268,0.268,0.764,0.75,0.772,0.889,0.355,0.327,0.33,0.342,0.417,0.387,0.345,–,–,–,–
LK-2,–,0.331,0.363,0.411,0.379,0.372,0.268,0.292,0.84,0.88,0.905,–,0.78,0.702,0.859,0.196,0.908,0.598,–
LOU-NH91,0.709,0.65,0.663,0.652,0.6,0.529,0.523,0.57,0.502,0.541,0.324,0.748,0.836,0.696,0.617,0.789,0.555,0.921,0.558
LU99A,0.73,0.859,0.896,0.721,0.55,0.506,0.501,0.538,0.805,0.886,0.725,0.282,0.276,0.237,0.234,0.903,0.829,0.302,0.63
LXF-289,0.377,0.354,0.385,0.408,0.251,0.25,0.231,0.221,0.957,0.94,0.85,0.97,1.04,1.04,0.998,0.358,0.901,1.06,0.928
NCI-H23,–,0.315,0.353,0.323,0.885,0.734,0.829,0.698,0.836,0.777,0.615,–,0.266,0.296,0.2,–,–,–,–
NCI-H322M,0.552,0.648,0.567,0.555,0.266,0.26,0.216,0.228,1.09,1.16,1.09,0.711,0.836,0.818,0.763,0.632,1.25,0.756,1.07
NCI-H441,–,0.268,0.266,0.214,0.56,0.637,0.615,0.298,0.94,0.514,0.604,–,0.48,0.486,0.559,0.239,–,0.689,0.223
NCI-H460,0.488,0.542,0.435,0.461,0.482,0.483,0.524,0.531,1.08,1.11,1.1,0.406,0.421,0.41,0.262,0.429,0.966,–,1.08
